Measured values from ChEMBL document CHEMBL1132392, “Novel derivatives of 3-(dipropylamino)chroman. Interactions with 5-HT1A and D2A receptors” (Bioorg Med Chem Lett, 1999).
The source made the active and inactive calls. The rule behind the calls is not given here.

Columns and labels:
[1] = target: T1, 5-hydroxytryptamine receptor 1A (Rattus norvegicus, UniProt P19327); test: In vitro ability to inhibit [3H]-8-OH-DPAT binding to 5-hydroxytryptamine 1A receptor in rat cortical membranes; assay type: cell membranes
T1 sequence (P19327 whole entry): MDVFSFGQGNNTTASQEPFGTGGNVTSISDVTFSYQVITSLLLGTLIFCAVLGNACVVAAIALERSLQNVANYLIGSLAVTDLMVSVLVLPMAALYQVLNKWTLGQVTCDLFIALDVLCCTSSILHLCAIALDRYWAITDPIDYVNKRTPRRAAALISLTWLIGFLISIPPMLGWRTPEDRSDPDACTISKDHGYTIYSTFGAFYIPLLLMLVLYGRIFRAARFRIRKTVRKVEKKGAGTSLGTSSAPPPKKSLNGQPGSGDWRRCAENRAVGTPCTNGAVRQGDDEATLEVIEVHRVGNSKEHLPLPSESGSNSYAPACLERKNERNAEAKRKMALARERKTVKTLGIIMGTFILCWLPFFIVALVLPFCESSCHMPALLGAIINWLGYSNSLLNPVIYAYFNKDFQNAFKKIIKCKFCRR

D(2) dopamine receptor [2] = target: T2, D(2) dopamine receptor (Homo sapiens, UniProt P14416); test: In vitro ability to inhibit [3H]raclopride binding to cloned human D2A receptors expressed in mouse fibroblast (LtK-) cells; assay type: cell-based
D(2) dopamine receptor [3] = target: T2, D(2) dopamine receptor; test: Agonist activity against human D2A receptor; Active; assay type: functional

T2 sequence (P14416 whole entry): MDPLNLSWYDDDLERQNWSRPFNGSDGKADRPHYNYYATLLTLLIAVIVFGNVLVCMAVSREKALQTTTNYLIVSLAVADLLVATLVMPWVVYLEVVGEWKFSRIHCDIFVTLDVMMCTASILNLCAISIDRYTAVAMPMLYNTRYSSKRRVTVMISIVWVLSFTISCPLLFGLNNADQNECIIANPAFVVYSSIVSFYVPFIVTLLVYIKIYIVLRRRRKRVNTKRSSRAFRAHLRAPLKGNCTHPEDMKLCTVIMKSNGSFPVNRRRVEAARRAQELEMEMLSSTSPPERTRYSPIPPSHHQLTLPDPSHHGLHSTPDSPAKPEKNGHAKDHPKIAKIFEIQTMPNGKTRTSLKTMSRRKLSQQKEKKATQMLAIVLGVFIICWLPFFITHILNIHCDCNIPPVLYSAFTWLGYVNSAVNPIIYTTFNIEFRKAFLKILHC

Ki [1] [nM] | Ki (D(2) dopamine receptor [2]) [nM] | SMILES | Activity (D(2) dopamine receptor [3])
1.1 | > 1000 | CCCN(CCC)C1COc2c(cccc2-c2ccccc2OC)C1 (stereo not given) | 
5.7 | 47.5 | CCCN(CCC)C1COc2c(cccc2-c2ccoc2)C1 (stereo not given) | 
63.8 | 763 | CCCN(CCC)C1COc2c(cccc2-c2ccc(C(F)(F)F)cc2)C1 (stereo not given) | 
10.5 | > 1000 | CCCN(CCC)C1COc2c(cccc2C(=O)c2ccc(OC)cc2)C1 (stereo not given) | 
11 | > 1000 | CCCN(CCC)C1COc2c(cccc2C(=O)c2ccc(C(C)=O)cc2)C1 (stereo not given) | 
1.1 | 398 | CCCN(CCC)C1COc2c(cccc2-c2ccsc2)C1 (stereo not given) | 
1.3 |  | CCCN(CCC)C1COc2c(cccc2-c2ccc(OC)cc2)C1 (stereo not given) | 
47.2 | > 1000 | CCCN(CCC)C1COc2c(cccc2C(=O)c2ccc(C(F)(F)F)cc2)C1 (stereo not given) | 
60.8 | > 1000 | CCCN(CCC)C1COc2c(cccc2C(=O)c2ccccc2OC)C1 (stereo not given) | 
4 | > 1000 | CCCN(CCC)C1COc2c(cccc2C(=O)c2ccccc2)C1 (stereo not given) | 

More lines, now with the values behind:

SMILES | Ki [1] [nM] | Ki (D(2) dopamine receptor [2]) [nM] | Activity (D(2) dopamine receptor [3])
CCCN(CCC)C1COc2c(SC)ccc(OC)c2C1 (stereo not given) |  |  | Active
CCCN(CCC)C1COc2c(O)cccc2C1 (stereo not given) | > 3000 | 128 | 
CCCN(CCC)C1COc2c(cccc2C(=O)c2ccsc2)C1 (stereo not given) | 7.3 | > 1000 | 
CCCN(CCC)C1COc2c(cccc2C(=O)c2ccoc2)C1 (stereo not given) | 16.4 | 1360 | 
CCCN(CCC)C1COc2c(cccc2-c2ccccc2)C1 (stereo not given) | 1.1 |  | 
CCCN(CCC)C1COc2cccc(O)c2C1 (stereo not given) | 83 | > 3000 | 
CCCN(CCC)C1COc2c(Br)ccc(OC)c2C1 (stereo not given) |  |  | Active
